Measurements: PubChem BioAssay AID1963871 (Molecular Pharmacology Branch, DTP, NCI, 2024)

Tested on: KRAS-mutant PDC multicell tumor spheroid viability
Assay: Anticancer human tumor 521955-158-R2-J5-PDC patient-derived pancreatic carcinoma cell line growth inhibition [KRAS2]
Details: for viability, T/C: stronger effect = lower value
Method in brief: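 Combination screen of spheroid viability in tumor-cell co-cultures with endothelial (HUVEC) and mesenchymal stem cell stroma. Each agent was tested in half-log dilutions, topping at clinical Cmax or at 10 microM without a known Cmax.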

[1] = curve of first compound, second compound 0.1 µM
[2] = curve of first compound, second compound 0.316 µM
[3] = curve of first compound, second compound 1 µM
[4] = curve of first compound, second compound 3.16 µM
[5] = curve of first compound, second compound 10 µM
[6] = second compound 0.1 µM, first compound 0.0316 µM
[7] = second compound 0.1 µM, first compound 0.1 µM
[8] = second compound 0.1 µM, first compound 0.316 µM
[9] = second compound 0.1 µM, first compound 1 µM
[10] = second compound 0.1 µM, first compound 3.16 µM
[11] = second compound 0.1 µM, first compound 10 µM
[12] = second compound 0.316 µM, first compound 0.0316 µM
[13] = second compound 0.316 µM, first compound 0.1 µM
[14] = second compound 0.316 µM, first compound 0.316 µM
[15] = second compound 0.316 µM, first compound 1 µM
[16] = second compound 0.316 µM, first compound 3.16 µM
[17] = second compound 0.316 µM, first compound 10 µM
[18] = second compound 1 µM, first compound 0.0316 µM
[19] = second compound 1 µM, first compound 0.1 µM
[20] = second compound 1 µM, first compound 0.316 µM
[21] = second compound 1 µM, first compound 1 µM
[22] = second compound 1 µM, first compound 3.16 µM
[23] = second compound 1 µM, first compound 10 µM
[24] = second compound 3.16 µM, first compound 0.0316 µM
[25] = second compound 3.16 µM, first compound 0.1 µM
[26] = second compound 3.16 µM, first compound 0.316 µM
[27] = second compound 3.16 µM, first compound 1 µM
[28] = second compound 3.16 µM, first compound 10 µM
[29] = second compound 10 µM, first compound 0.0316 µM
[30] = second compound 10 µM, first compound 0.1 µM
[31] = second compound 10 µM, first compound 0.316 µM
[32] = second compound 10 µM, first compound 1 µM
[33] = second compound 10 µM, first compound 3.16 µM
[34] = second compound 10 µM, first compound 10 µM
[35] = second compound 3.16 µM, first compound 3.16 µM
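Note: viability read after seven days of drug exposure.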

Row | Compound | IC50 [1] | IC50 [2] | IC50 [3] | IC50 [4] | viability, T/C [6] | viability, T/C [7] | viability, T/C [8] | viability, T/C [9] | viability, T/C [10] | viability, T/C [11] | viability, T/C [12] | viability, T/C [13] | viability, T/C [14] | viability, T/C [15] | viability, T/C [16] | viability, T/C [17] | viability, T/C [18] | viability, T/C [19] | viability, T/C [20] | viability, T/C [21] | further results
1 | CC(C)NCC(C(=O)N1CCN(c2ncnc3c2C(C)CC3O)CC1)c1ccc(Cl)cc1 (stereo unspecified) + C=CC(=O)N1CCN(c2nc(=O)n(-c3c(C)ccnc3C(C)C)c3nc(-c4c(O)cccc4F)c(F)cc23)C(C)C1 | > 10000 nM | > 10000 nM | > 10000 nM | 293 nM | 102% | 105% | 77.7% | 78% | 76.5% | 67% | 116% | 100% | 74.4% | 64.4% | 65.3% | 58.6% | 106% | 94.9% | 64.1% | 54.5% | IC50 [5]: 134 nM; viability, T/C [22]: 58.2%; viability, T/C [23]: 53.2%; viability, T/C [24]: 94.8%; viability, T/C [25]: 82.8%; viability, T/C [26]: 46.5%; viability, T/C [27]: 43.2%; viability, T/C [28]: 31%; viability, T/C [29]: 69.5%; viability, T/C [30]: 56.2%; viability, T/C [31]: 32.1%; viability, T/C [32]: 19.7%; viability, T/C [33]: 19.2%; viability, T/C [34]: 13.2%
2 | COc1cc(OC)cc(N(CCNC(C)C)c2ccc3ncc(-c4cnn(C)c4)nc3c2)c1 | – | – | – | – | – | – | – | – | – | – | – | – | – | – | – | – | – | – | – | – | viability, T/C (compound 0.0316 µM): 94.3% [middle of 5 runs]; viability, T/C (compound 0.1 µM): 99.1% [middle of 5 runs]; viability, T/C (compound 0.316 µM): 105% [middle of 5 runs]; viability, T/C (compound 1 µM): 123% [middle of 5 runs]; viability, T/C (compound 10 µM): 0.56% [middle of 5 runs]; IC50 (curve of compound): 6.06 µM [middle of 4 runs]
3 | Cn1nccc1Nc1nccc(-c2cc3c(s2)C(C)(C)N(CCN2CCOCC2)C3=O)n1 + C=CC(=O)N1CCN(c2nc(=O)n(-c3c(C)ccnc3C(C)C)c3nc(-c4c(O)cccc4F)c(F)cc23)C(C)C1 | 1610 nM | 2020 nM | 2910 nM | 2960 nM | 98.9% | 94.9% | 76.9% | 59.4% | 37.9% | 24.2% | 125% | 107% | 76.9% | 58.5% | 47% | 36.7% | 117% | 110% | 85.3% | 67.5% | IC50 [5]: 1010 nM; viability, T/C [22]: 42.7%; viability, T/C [23]: 47.5%; viability, T/C [24]: 110%; viability, T/C [25]: 116%; viability, T/C [26]: 84.6%; viability, T/C [27]: 64.2%; viability, T/C [35]: 54.1%; viability, T/C [28]: 40.5%; viability, T/C [29]: 78.5%; viability, T/C [30]: 78.1%; viability, T/C [31]: 61.3%; viability, T/C [32]: 52.8%; viability, T/C [33]: 41.1%; viability, T/C [34]: 43.1%
4 | COc1cc(Nc2ncc3c(n2)-c2ccc(Cl)cc2C(c2c(F)cccc2OC)=NC3)ccc1C(=O)O + C=CC(=O)N1CCN(c2nc(=O)n(-c3c(C)ccnc3C(C)C)c3nc(-c4c(O)cccc4F)c(F)cc23)C(C)C1 | < 31.6 nM | < 31.6 nM | < 31.6 nM | < 31.6 nM | 47.6% | 49.3% | 43% | 42.2% | 46.1% | 38.8% | 43.2% | 44.5% | 52.2% | 44.5% | 44.3% | 36.4% | 48.1% | 44.8% | 43.1% | 48% | IC50 [5]: < 31.6 nM; viability, T/C [23]: 32.7%; viability, T/C [24]: 47.5%; viability, T/C [25]: 45.9%; viability, T/C [26]: 36%; viability, T/C [27]: 40.3%; viability, T/C [35]: 37%; viability, T/C [28]: 31.9%; viability, T/C [29]: 40.6%; viability, T/C [30]: 43.5%; viability, T/C [31]: 38.5%; viability, T/C [32]: 37.5%; viability, T/C [33]: 34.8%; viability, T/C [34]: 39.6%
5 | CC(C)NCC(C(=O)N1CCN(c2ncnc3c2C(C)CC3O)CC1)c1ccc(Cl)cc1 (stereo unspecified) + C=CC(=O)N1CCN(c2nc(OCC3CCCN3C)nc3c2CCN(c2cccc4cccc(C)c24)C3)CC1CC#N | > 10000 nM | > 10000 nM | > 10000 nM | < 31.6 nM | 103% | 103% | 84.5% | 83.6% | 79.6% | 59.8% | 97.5% | 92.3% | 76.2% | 73.5% | 75.4% | 52.1% | 81.6% | 80.4% | 65.8% | 59.2% | IC50 (curve of first compound, second compound 0.0316 µM): > 10000 nM; viability, T/C (second compound 0.0316 µM, first compound 0.0316 µM): 108%; viability, T/C (second compound 0.0316 µM, first compound 0.1 µM): 110%; viability, T/C (second compound 0.0316 µM, first compound 0.316 µM): 84.5%; viability, T/C (second compound 0.0316 µM, first compound 1 µM): 87.1%; viability, T/C (second compound 0.0316 µM, first compound 3.16 µM): 92.3%; viability, T/C (second compound 0.0316 µM, first compound 10 µM): 65.8%; viability, T/C [22]: 62.3%; viability, T/C [23]: 50.6%; viability, T/C [24]: 12.2%; viability, T/C [25]: 14.6%; viability, T/C [26]: 17%; viability, T/C [27]: 11.6%; viability, T/C [35]: 3.96%; viability, T/C [28]: 1.11%
6 | CC(C)NCC(C(=O)N1CCN(c2ncnc3c2C(C)CC3O)CC1)c1ccc(Cl)cc1 (stereo unspecified) + CC1OCC2(CCN(c3cnc(Sc4ccnc(N)c4Cl)c(N)n3)CC2)C1N | > 10000 nM | > 10000 nM | 1080 nM | 287 nM | 67.8% | 82.7% | 67.7% | 61.8% | 74.3% | 53.7% | 65.3% | 66.8% | 55.4% | 60.3% | 61.2% | 48.7% | 62% | 60.9% | 46.5% | 51.3% | IC50 [5]: 483 nM; viability, T/C [22]: 53.3%; viability, T/C [23]: 39.5%; viability, T/C [24]: 56.5%; viability, T/C [25]: 57.8%; viability, T/C [26]: 43.1%; viability, T/C [27]: 41.5%; viability, T/C [35]: 48.4%; viability, T/C [28]: 27.7%; viability, T/C [29]: 54.1%; viability, T/C [30]: 66.9%; viability, T/C [31]: 51.2%; viability, T/C [32]: 38%; viability, T/C [33]: 41.5%; viability, T/C [34]: 20.7%
7 | Cn1nccc1Nc1nccc(-c2cc3c(s2)C(C)(C)N(CCN2CCOCC2)C3=O)n1 | – | – | – | – | – | – | – | – | – | – | – | – | – | – | – | – | – | – | – | – | viability, T/C (compound 0.0316 µM): 91.2% [middle of 5 runs]; viability, T/C (compound 0.1 µM): 86.3% [middle of 5 runs]; viability, T/C (compound 0.316 µM): 60.6% [middle of 5 runs]; viability, T/C (compound 1 µM): 51% [middle of 5 runs]; viability, T/C (compound 3.16 µM): 32.7% [middle of 5 runs]; viability, T/C (compound 10 µM): 22.6% [middle of 5 runs]; IC50 (curve of compound): 902 nM [middle of 5 runs]
